Source: patent publication US7704995B2 (Exelixis, Inc., priority 2003, dated 2010)
pIC50: −log10 of the molar value. Read-outs that look alike come from different tables or passages of the source.

Molecular target: T1, Chk1 (Homo sapiens, UniProt O14757)
T1 construct: purchased Upstate Biotechnology
T1 sequence (O14757 1-476): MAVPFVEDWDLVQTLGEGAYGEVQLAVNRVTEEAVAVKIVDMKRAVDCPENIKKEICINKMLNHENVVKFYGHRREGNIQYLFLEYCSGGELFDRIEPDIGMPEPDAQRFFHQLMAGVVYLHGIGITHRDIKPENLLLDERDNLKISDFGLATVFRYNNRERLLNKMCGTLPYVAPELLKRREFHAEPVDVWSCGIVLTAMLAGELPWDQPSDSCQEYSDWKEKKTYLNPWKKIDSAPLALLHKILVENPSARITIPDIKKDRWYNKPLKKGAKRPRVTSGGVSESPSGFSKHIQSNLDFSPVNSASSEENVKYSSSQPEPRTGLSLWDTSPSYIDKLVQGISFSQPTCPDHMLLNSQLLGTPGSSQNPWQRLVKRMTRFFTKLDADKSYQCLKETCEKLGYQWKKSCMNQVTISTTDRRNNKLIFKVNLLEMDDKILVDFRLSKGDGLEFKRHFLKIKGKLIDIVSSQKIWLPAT
Test: Chk1 kinase assay: incorporation of γ-33P ATP into immobilized myelin basic protein
Format: biochemical
Settings: read-out: Chk1 IC50
Outline: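 Plates coated with MBP, then kinase reactions in Hepes pH 7.6 buffer with 10 mM MgCl2 and 1% DMSO were started by adding unlabeled plus γ-33P ATP (10 μM for Chk1 at 10 nM enzyme; 30 μM for Chk2 at 20 nM enzyme). After 1 h at room temperature, plates were washed and counted.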

[1] = Table 11, Chk1 only, class symbols A-D

| pIC50 (Table 11, Chk1 only) | pIC50 | Compound | also measured |
| --- | --- | --- | --- |
| 6.00 to 7.30 |  | COc1ccc(CNC(=O)c2cccc(-c3cnc(N)c(C(=O)N[C@H]4CCNC4)n3)c2)cc1 [Example 743, 3-amino-6-{3-[({[4-(methyloxy)phenyl]methyl}amino)carbonyl]phenyl}-N-[(3S)-pyrrolidin-3-yl]pyrazine-2-carboxamide] |  |
| ≤ 5.00 |  | N=C(NN1CCCCC1)c1nc(-c2cccc(C(=O)NCc3ccccc3)c2)cnc1N [Example 622, 3-{5-amino-6-[imino(piperidin-1-ylamino)methyl]pyrazin-2-yl}-N-(phenylmethyl)benzamide] |  |
| ≤ 5.00 |  | CC(C)(C)OC(=O)N1CC[C@H](NC(=O)c2nc(-c3cccc(C(=O)NCCc4ccccc4)c3)cnc2N)C1 [Example 712, 1,1-dimethylethyl (3S)-3-({[3-amino-6-(3-{[(2-phenylethyl)amino]carbonyl}phenyl)pyrazin-2-yl]carbonyl}amino)pyrrolidine-1-carboxylate] |  |
|  | 6.00 to 7.30 | CNC(=O)c1nc(-c2cccc(C(=O)N[C@@H]3CCN(Cc4c(Cl)cccc4Cl)C3)c2)cnc1N [Example 362, 3-amino-6-{3-[({(3R)-1-[(2,6-dichlorophenyl)methyl]pyrrolidin-3-yl}amino)carbonyl]phenyl}-N-methylpyrazine-2-carboxamide] |  |
| 6.00 to 7.30 |  | Nc1ncc(-c2cccc(C(=O)N[C@H]3c4ccccc4C[C@H]3O)c2)nc1C(=O)N[C@H]1CCNC1 [Example 708, 3-amino-6-[3-({[(1S,2R)-2-hydroxy-2,3-dihydro-1H-inden-1-yl]amino}carbonyl)phenyl]-N-[(3S)-pyrrolidin-3-yl]pyrazine-2-carboxamide] |  |

Continued, compound first:

| Compound | pIC50 (Table 11, Chk1 only) | pIC50 | also measured |
| --- | --- | --- | --- |
| Nc1ncc(-c2cccc(CO)c2)nc1-c1nc(C2CCNCC2)n[nH]1 [Example 607, {3-[5-amino-6-(3-piperidin-4-yl-1H-1,2,4-triazol-5-yl)pyrazin-2-yl]phenyl}methanol] | 5.00 to 6.00 |  |  |
| CC(C)(C)OC(=O)N1CC[C@H](NC(=O)c2nc(-c3cccc(C(=O)NCc4ccc(Cl)cc4Cl)c3)cnc2N)C1 [Example 822, 1,1-dimethylethyl (3S)-3-[({3-amino-6-[3-({[(2,4-dichlorophenyl)methyl]amino}carbonyl)phenyl]pyrazin-2-yl}carbonyl)amino]pyrrolidine-1-carboxylate] |  |  | pIC50 [1]: 5.00 to 6.00 |
| CNC(=O)c1nc(-c2ccc(F)c(C(=O)NCc3ccccc3)c2)cnc1N [Example 291, 3-amino-6-(4-fluoro-3-{[(phenylmethyl)amino]carbonyl}phenyl)-N-methylpyrazine-2-carboxamide] |  | 6.00 to 7.30 |  |
| CNC(=O)c1nc(-c2cccc(CNCc3c(F)cccc3F)c2)cnc1N [Example 402, 3-amino-6-[3-({[(2,6-difluorophenyl)methyl]amino}methyl)phenyl]-N-methylpyrazine-2-carboxamide] |  | 6.00 to 7.30 |  |
| C/C(=N\Nc1ccc(C)cc1)c1nc(-c2cccc(C(=O)NCc3ccccc3)c2)cnc1N [Example 602, 3-{5-amino-6-[(1E)-N-(4-methylphenyl)ethanehydrazonoyl]pyrazin-2-yl}-N-(phenylmethyl)benzamide] | ≤ 5.00 |  |  |
| CNC(=O)c1nc(-c2cccc(NC(=O)Cc3ccc(Cl)cc3Cl)c2)cnc1N [Example 209, 3-amino-6-(3-{[(2,4-dichlorophenyl)acetyl]amino}phenyl)-N-methylpyrazine-2-carboxamide] |  | > 7.30 |  |
| Nc1ncc(-c2cccc(C(=O)NC3CCCC3)c2)nc1C(=O)N[C@H]1CCCNC1 [Example 929, 3-amino-6-{3-[(cyclopentylamino)carbonyl]phenyl}-N-[(3S)-piperidin-3-yl]pyrazine-2-carboxamide] |  |  | pIC50 [1]: 6.00 to 7.30 |
| CNC(=O)c1nc(-c2cccc(CNCc3ccc(Oc4ccccc4)cc3)c2)cnc1N [Example 397, 3-amino-N-methyl-6-{3-[({[4-(phenyloxy)phenyl]methyl}amino)methyl]phenyl}pyrazine-2-carboxamide] |  | 6.00 to 7.30 |  |
| NC(=O)c1nc(-c2ccccc2)cnc1NCc1ccccc1 [Example 39, 6-phenyl-3-[(phenylmethyl)amino]pyrazine-2-carboxamide] |  | ≤ 5.00 |  |
| CNC(=O)c1nc(-c2cccc(OCCN3CCCCC3)c2)cnc1N [Example 188, 3-amino-N-methyl-6-{3-[(2-piperidin-1-ylethyl)oxy]phenyl}pyrazine-2-carboxamide] |  | 6.00 to 7.30 |  |
| CNC(=O)c1nc(-c2cccc(C(=O)NCc3ccc(I)cc3)c2)cnc1N [Example 302, 3-amino-6-[3-({[(4-iodophenyl)methyl]amino}carbonyl)phenyl]-N-methylpyrazine-2-carboxamide] |  | > 7.30 |  |
| CNC(=O)c1nc(-c2cccc(NC(=O)c3ccco3)c2)cnc1N [Example 124, 3-amino-6-{3-[(furan-2-ylcarbonyl)amino]phenyl}-N-methylpyrazine-2-carboxamide] |  | 6.00 to 7.30 |  |
| Nc1ncc(-c2cccc(C(=O)NCc3ccc(Cl)cc3F)c2)nc1C(=O)N[C@H]1CCCNC1 [Example 849, 3-amino-6-[3-({[(4-chloro-2-fluorophenyl)methyl]amino}carbonyl)phenyl]-N-[(3S)-piperidin-3-yl]pyrazine-2-carboxamide] |  |  | pIC50 [1]: > 7.30 |
| Nc1ncc(-c2cccc(CNC(=O)c3ccc4c(c3)CCO4)c2)nc1C(=O)N[C@H]1CCCNC1 [Example 936, 3-amino-6-(3-{[(2,3-dihydro-1-benzofuran-5-ylcarbonyl)amino]methyl}phenyl)-N-[(3S)-piperidin-3-yl]pyrazine-2-carboxamide] |  |  | pIC50 [1]: > 7.30 |
| CNC(=O)c1nc(-c2cccc(CNC(=O)c3ccc(Cl)cc3)c2)cnc1N [Example 309, 3-amino-6-[3-({[(4-chlorophenyl)carbonyl]amino}methyl)phenyl]-N-methylpyrazine-2-carboxamide] |  | 6.00 to 7.30 |  |
| CNC(=O)c1nc(-c2cccc(CNC3CCc4ccc(Br)cc43)c2)cnc1N (stereo not drawn) [Example 501, 3-amino-6-(3-{[(6-bromo-2,3-dihydro-1H-inden-1-yl)amino]methyl}phenyl)-N-methylpyrazine-2-carboxamide] | 6.00 to 7.30 |  |  |
| Nc1ncc(-c2cccc(CNC(=O)c3cccs3)c2)nc1C(=O)N[C@H]1CCCNC1 [Example 938, 3-amino-N-[(3S)-piperidin-3-yl]-6-(3-{[(2-thienylcarbonyl)amino]methyl}phenyl)pyrazine-2-carboxamide] |  |  | pIC50 [1]: > 7.30 |
| Nc1ncc(-c2cccc(C(=O)N[C@H]3CCc4ccccc43)c2)nc1C(=O)N[C@H]1CCCCNC1 [Example 973, 3-amino-N-[(3S)-azepan-3-yl]-6-(3{[(1S)-2,3-dihydro-1H-inden-1-ylamino]carbonyl}phenyl)pyrazine-2-carboxamide] |  |  | pIC50 [1]: > 7.30 |
| Nc1ncc(-c2cccc(NC(=O)Cc3c(Cl)cccc3Cl)c2)nc1C(=O)N[C@H]1CCCNC1 [Example 886, 3-amino-6-(3-{[(2,6-dichlorophenyl)acetyl]amino}phenyl)-N-[(3S)-piperidin-3-yl]pyrazine-2-carboxamide] |  |  | pIC50 [1]: > 7.30 |
| CNC(=O)c1nc(-c2cccc(CNC3CCc4cccc(F)c43)c2)cnc1N (stereo not drawn) [Example 502, 3-amino-6-(3-{[(7-fluoro-2,3-dihydro-1H-inden-1-yl)amino]methyl}phenyl)-N-methylpyrazine-2-carboxamide] | 6.00 to 7.30 |  |  |
| N=C(NNc1ccccn1)c1nc(-c2cccc(C(=O)NCc3ccccc3)c2)cnc1N [Example 693, 3-{5-amino-6-[imino(2-pyridin-2-ylhydrazino)methyl]pyrazin-2-yl}-N-(phenylmethyl)benzamide] | ≤ 5.00 |  |  |
| CNC(=O)c1nc(-c2cccc(-c3nc(-c4ccccc4)c[nH]3)c2)cnc1N [Example 442, 3-amino-N-methyl-6-[3-(4-phenyl-1H-imidazol-2-yl)phenyl]pyrazine-2-carboxamide] | 6.00 to 7.30 |  |  |
| Nc1ncc(-c2cccc(C(=O)NCc3ccccc3)c2)nc1C(=O)N[C@H]1CCCNC1 [Example 1040, 3-amino-6-{3-[({[phenyl]methyl}amino)carbonyl]phenyl}-N-[(3S)-piperidin-3-yl]pyrazine-2-carboxamide] |  |  | pIC50 [1]: > 7.30 |
| Cc1ccccc1CNC(=O)c1cccc(-c2cnc(N)c(C(=O)N[C@H]3CCCNC3)n2)c1 [Example 1035, 3-amino-6-[3-({[(2-methylphenyl)methyl]amino}carbonyl)phenyl]-N-[(3S)-piperidin-3-yl]pyrazine-2-carboxamide] |  |  | pIC50 [1]: > 7.30 |
| CNC(=O)c1nc(-c2cccc(C(=O)NCc3ccco3)c2)cnc1N [Example 203, 3-amino-6-(3-{[(furan-2-ylmethyl)amino]carbonyl}phenyl)-N-methylpyrazine-2-carboxamide] |  | 6.00 to 7.30 |  |
| CNC(=O)c1nc(-c2cccc(C(=O)NCc3cc(OC)ccc3OC)c2)cnc1N [Example 294, 3-amino-6-{3-[({[2,5-bis(methyloxy)phenyl]methyl}amino)carbonyl]phenyl}-N-methylpyrazine-2-carboxamide] |  | 6.00 to 7.30 |  |
| CNC(=O)c1nc(-c2cccc(CN[C@H](C(=O)OC)c3ccccc3)c2)cnc1N [Example 429, methyl (2S)-{[(3-{5-amino-6-[(methylamino)carbonyl]pyrazin-2-yl}phenyl)methyl]amino}(phenyl)ethanoate] | 5.00 to 6.00 |  |  |
| CNC(=O)c1nc(-c2cccc(C(=O)NCc3ccc(F)c(Br)c3)c2)cnc1N [Example 257, 3-amino-6-[3-({[(3-bromo-4-fluorophenyl)methyl]amino}carbonyl)phenyl]-N-methylpyrazine-2-carboxamide] |  | 6.00 to 7.30 |  |
